The record followed here is patent US12679836B2, “4H-pyrrolo[3,2-c]pyridin-4-one compounds” (Bayer Aktiengesellschaft, priority 2019, dated 2026).

For orientation: IC50 means the concentration that gives 50% inhibition.

Test [1] concerns HCC-827 cells (EGFRex19del). Description: HCC-827 proliferation assay (Cell Titer Glo). Type of test: cell-based. The following applies: Homo sapiens, HCC827, 72 h. How it is done:
Cellular Data Description (HCC-827 Cells, EGFRex19del)
(§1) HCC-827 cells were purchased from ATCC. 400 HCC-829 cells per well were seeded in growth medium (RPM11640, 10% FCS) in a 384-well plate (CORNING #3571). Seed reference plate for time zero determination on the same day. All plates were incubated overnight at 37° C. After 24 hours, test compound were added in 7-step dilution using HP Compound printer and incubated at 37° C. for 72 h. After 3 days, 30 μL/well CTG solution (Promega Cell Titer Glo solution; catalog # G755B and G756B) were added to each well, incubated for 30 minutes and the plate were read on PheraStar. Proliferation is calculated after subtracting time zero luminescence values from day 4 values and comparing to untreated wells.
The IC50 values were determined using the four parameter fit.
On the technique in general: Cellular ATP, detected with luciferase, serves as a proxy for viable cell number.

Test [2] has as its target T1, EGFR with insertion of SVD between D770 and N771 (EGFR ins SVD) (Homo sapiens, UniProt P00533, DUP768-770).
T1 construct: made in house; host or cells: Sf9 insect cells (baculovirus)
Description: Exon20-Mutant-EGFR(D770_N771insSVD) kinase assay (TR-FRET). The following applies: 2 mM ATP, several values per example where printed. It counts as biochemical. On the technique in general: In TR-FRET formats the signal depends on donor and acceptor labels being close together.

In another test the test system is PC9 cells (EGFRex19del). Description: PC9 proliferation assay (Cell Titer Glo). Type of test: cell-based. The following applies: Homo sapiens, PC-9, 72 h. How it is done:
Cellular Data Description (PC9 Cells, EGFRex19del)
as §1, with “PC9” for “HCC-827”, “PC9” for “HCC-829”, “(DMEM,” for “(RPM11640,”, “wells. The IC50 values were determined using the four parameter fit.” for “wells.”

For the next test, the target named is Ba/F3-EGFR-insSVD cells (Homo sapiens, UniProt P00533, DUP768-770, cells depend on it). Description: Ba/F3 cell survival assay (Cell Titer-Glo), EGFR-insSVD. Type of test: cell-based. As to conditions: without IL-3, with 10 ng/mL EGF, 48 h; read-out: BA/F3 (insSVD) IC50. In a few lines: (§2)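 Ba/F3 cells stably expressing WT EGFR or EGFR-insSVD from retroviral transduction were grown without IL-3 on 10 ng/mL EGF. Cells were plated at 4000 cells/well, treated with compound for 48 h at 37° C, and viability was read by CellTiter-Glo luminescence.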
Ba/F3-EGFR-insSVD cells, sequence (P00533 with tags, fused parts or gaps DUP768-770): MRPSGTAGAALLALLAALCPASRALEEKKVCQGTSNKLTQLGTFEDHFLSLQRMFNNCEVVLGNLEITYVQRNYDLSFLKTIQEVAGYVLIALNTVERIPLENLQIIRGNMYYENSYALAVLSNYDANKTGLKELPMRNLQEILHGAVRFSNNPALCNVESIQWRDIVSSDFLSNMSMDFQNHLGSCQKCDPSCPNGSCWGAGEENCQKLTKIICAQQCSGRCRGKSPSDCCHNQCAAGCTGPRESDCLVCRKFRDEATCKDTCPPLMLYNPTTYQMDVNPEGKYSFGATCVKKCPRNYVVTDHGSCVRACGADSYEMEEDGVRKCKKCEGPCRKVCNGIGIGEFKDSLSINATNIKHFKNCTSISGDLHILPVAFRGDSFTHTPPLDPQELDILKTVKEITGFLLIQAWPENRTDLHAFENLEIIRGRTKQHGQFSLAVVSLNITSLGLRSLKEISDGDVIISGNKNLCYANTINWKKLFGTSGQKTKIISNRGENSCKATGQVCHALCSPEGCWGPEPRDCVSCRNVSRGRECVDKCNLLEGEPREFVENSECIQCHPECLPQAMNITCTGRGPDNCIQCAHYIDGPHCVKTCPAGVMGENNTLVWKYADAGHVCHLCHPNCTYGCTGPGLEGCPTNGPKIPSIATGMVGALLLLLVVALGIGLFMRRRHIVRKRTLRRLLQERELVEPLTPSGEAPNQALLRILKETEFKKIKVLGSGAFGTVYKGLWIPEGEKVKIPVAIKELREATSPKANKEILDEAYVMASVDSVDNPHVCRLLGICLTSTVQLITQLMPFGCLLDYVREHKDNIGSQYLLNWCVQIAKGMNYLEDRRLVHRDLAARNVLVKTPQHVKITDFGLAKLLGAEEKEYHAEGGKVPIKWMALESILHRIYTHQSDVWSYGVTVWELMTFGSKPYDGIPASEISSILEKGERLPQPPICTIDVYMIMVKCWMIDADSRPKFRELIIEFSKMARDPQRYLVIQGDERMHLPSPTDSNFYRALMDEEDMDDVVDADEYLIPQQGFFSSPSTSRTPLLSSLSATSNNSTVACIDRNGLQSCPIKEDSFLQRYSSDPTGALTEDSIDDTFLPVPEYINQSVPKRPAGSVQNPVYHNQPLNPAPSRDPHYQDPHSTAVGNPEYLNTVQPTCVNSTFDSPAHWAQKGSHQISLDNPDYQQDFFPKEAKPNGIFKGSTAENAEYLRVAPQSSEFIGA

The target of test [3] is Ba/F3-ERBB2-A775_G776insYVMA cells (Homo sapiens, UniProt P04626, DUP772-775, cells depend on it). The test is described as follows: Ba/F3 cell survival assay, ERBB2 A775_G776insYVMA. It counts as cell-based. The following applies: without IL-3, without EGF, 48 h; read-out: BA/F3 (ERBB2 A775_G776 insYVMA) IC50. How it is done: 293T cells from ATCC were transfected with pBABEpuro expression constructs for mutant EGFR (V769_D770insASV, D770_N771insNPG, N771_P772insH, H773_V774insNPH, E746_A750del, L858R, D770_N771insSVD C797S, E746_A750del C797S, L858R C797S, L861Q) or mutant ERBB2 (A775_G776insYVMA) and pCL-Eco packaging vector using Fugene-6 transfection reagent from Promega. Plates were incubated at 37° C. for 48 h. Retrovirus was harvested by filtering the media supernatant through a 0.45 μm filter.
Ba/F3-ERBB2-A775_G776insYVMA cells, sequence (P04626 with tags, fused parts or gaps DUP772-775): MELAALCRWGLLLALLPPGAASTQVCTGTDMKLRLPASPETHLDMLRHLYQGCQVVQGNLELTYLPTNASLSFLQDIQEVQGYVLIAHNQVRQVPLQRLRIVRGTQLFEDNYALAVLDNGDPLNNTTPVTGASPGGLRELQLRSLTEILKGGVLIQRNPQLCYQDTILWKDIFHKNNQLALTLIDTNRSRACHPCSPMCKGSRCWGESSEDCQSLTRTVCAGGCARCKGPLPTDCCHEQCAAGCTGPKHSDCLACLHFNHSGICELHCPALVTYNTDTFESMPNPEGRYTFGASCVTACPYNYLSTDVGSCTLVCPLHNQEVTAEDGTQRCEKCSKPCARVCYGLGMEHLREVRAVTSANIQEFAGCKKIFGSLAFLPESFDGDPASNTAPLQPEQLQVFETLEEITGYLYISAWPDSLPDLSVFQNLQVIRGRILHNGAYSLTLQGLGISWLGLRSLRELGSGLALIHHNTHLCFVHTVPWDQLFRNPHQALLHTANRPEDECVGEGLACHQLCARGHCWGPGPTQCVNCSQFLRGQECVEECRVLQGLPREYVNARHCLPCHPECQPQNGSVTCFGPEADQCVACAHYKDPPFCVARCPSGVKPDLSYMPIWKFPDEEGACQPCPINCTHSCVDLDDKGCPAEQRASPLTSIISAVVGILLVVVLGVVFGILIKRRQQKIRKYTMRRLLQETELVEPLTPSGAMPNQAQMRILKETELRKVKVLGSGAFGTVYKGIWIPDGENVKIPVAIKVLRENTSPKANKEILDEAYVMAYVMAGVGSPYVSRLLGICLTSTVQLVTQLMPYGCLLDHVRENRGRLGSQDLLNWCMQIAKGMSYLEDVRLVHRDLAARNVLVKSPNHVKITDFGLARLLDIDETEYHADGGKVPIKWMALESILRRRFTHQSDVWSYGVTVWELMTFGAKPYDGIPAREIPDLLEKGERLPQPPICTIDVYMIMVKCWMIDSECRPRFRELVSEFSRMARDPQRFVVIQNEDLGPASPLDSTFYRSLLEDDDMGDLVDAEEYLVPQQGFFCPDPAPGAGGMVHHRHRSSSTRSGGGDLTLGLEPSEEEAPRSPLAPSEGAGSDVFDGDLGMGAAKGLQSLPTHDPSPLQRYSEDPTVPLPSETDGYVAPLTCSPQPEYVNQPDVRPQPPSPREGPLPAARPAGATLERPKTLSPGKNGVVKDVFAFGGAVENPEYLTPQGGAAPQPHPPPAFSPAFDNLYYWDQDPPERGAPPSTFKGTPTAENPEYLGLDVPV
Ba/F3 cells purchased from DSMZ were grown in RPMI+10% FBS+10 ng/mL IL-3 and infected with filtered retroviral supernatant at a 1:2 dilution. Polybrene was added to a concentration of 8 μg/mL, plates were spun for 90 min, and incubated overnight at 37° C. 2 μg/mL puromycin was added to the infected cells 24 h after infection and cells were continually grown in the presence of puromycin and 10 ng/mL IL-3. Following stably expressing Ba/F3 cell lines were generated: Ba/F3-EGFR-V769_D770insASV, Ba/F3-EGFR-D770_N771insNPG, Ba/F3-EGFR-N771_P772insH, Ba/F3-EGFR-H773_V774insNPH, Ba/F3-EGFR-E746_A750del, Ba/F3-EGFR-L858R, Ba/F3-EGFR-D770_N771 insSVD C797S, Ba/F3-EGFR-E746_A750del C797S, Ba/F3-EGFR-L858R C797S, Ba/F3-EGFR L861Q and Ba/F3-ERBB2-A775_G776insYVMA (Ba/F3-vector-control).
For cell survival assays, Ba/F3 cells were grown to a density of 1-2 million cells per mL, spun down and resuspended in media without IL-3, and replated at a concentration 200,000-500,000 cells per mL. The cells ectopically expressing WT EGFR plated with 10 ng/mL Millipore Culture grade EGF and Ba/F3 cells containing mutant EGFR or Mutant ERBB2 were cultivated without EGF. The cells ectopically expressing pBABEpuro empty vector were plated with 10 ng/mL IL-3.
2 days later, cells were plated in 50 μL in a 384 well plate at a concentration of 4000 cells per well for cells assayed in the absence of IL-3 and 2000 cells per well for cells assayed in the presence of IL-3. 100 nL of compound was added to each well using a 100 nL pin head, and plates were incubated at 37° C. for 48 h.
Cell viability was measured by adding 20 μL of Cell Titer-Glo Luminescent Cell Viability Reagent diluted 1:3 in PBS. Plates were sealed with Perkin Elmer Top-Seal, inverted several times to mix, and immediately centrifuged at 1000 rpm for 2 min. Plates were incubated in low light conditions for 8-10 min and luminescence was measured.

A further test addresses Ba/F3-EGFR-WT cells (Homo sapiens, UniProt P00533). Description: Ba/F3 cell survival assay (Cell Titer-Glo), WT EGFR. Type of test: cell-based. As to conditions: without IL-3, with 10 ng/mL EGF, 48 h; read-out: BA/F3 (wild type) IC50. In outline:
as §2

In another test the target is T2, Bub1 (Homo sapiens, UniProt O43683).
T2 construct: catalytic domain of human Bub1 (amino acids 704-1085); His6 (N); made in house; host or cells: Hi5 insect cells
T2 sequence (O43683 704-1085): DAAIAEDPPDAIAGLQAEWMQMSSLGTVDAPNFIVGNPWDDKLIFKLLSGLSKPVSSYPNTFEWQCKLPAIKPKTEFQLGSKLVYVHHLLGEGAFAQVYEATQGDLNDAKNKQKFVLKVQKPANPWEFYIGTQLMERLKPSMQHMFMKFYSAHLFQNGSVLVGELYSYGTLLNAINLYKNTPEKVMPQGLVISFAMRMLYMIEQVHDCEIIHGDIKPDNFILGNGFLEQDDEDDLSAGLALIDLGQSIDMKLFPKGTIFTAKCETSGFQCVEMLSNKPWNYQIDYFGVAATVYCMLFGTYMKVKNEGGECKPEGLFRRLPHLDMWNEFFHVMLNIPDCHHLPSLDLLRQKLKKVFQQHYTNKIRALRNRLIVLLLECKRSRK
Description: Bub1 TR-FRET high ATP kinase assay. Type of test: biochemical. The following applies: Bub1 high ATP (2 mM) IC50 [mol/l], 2 mM ATP. In a few lines: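 Recombinant His6-tagged human Bub1 catalytic domain (aa 704-1085), from Hi5 insect cells, phosphorylating a biotinylated peptide substrate at high ATP concentration. TR-FRET read-out.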

Ba/F3-EGFR-WT cells, sequence (P00533 whole entry, change not shown): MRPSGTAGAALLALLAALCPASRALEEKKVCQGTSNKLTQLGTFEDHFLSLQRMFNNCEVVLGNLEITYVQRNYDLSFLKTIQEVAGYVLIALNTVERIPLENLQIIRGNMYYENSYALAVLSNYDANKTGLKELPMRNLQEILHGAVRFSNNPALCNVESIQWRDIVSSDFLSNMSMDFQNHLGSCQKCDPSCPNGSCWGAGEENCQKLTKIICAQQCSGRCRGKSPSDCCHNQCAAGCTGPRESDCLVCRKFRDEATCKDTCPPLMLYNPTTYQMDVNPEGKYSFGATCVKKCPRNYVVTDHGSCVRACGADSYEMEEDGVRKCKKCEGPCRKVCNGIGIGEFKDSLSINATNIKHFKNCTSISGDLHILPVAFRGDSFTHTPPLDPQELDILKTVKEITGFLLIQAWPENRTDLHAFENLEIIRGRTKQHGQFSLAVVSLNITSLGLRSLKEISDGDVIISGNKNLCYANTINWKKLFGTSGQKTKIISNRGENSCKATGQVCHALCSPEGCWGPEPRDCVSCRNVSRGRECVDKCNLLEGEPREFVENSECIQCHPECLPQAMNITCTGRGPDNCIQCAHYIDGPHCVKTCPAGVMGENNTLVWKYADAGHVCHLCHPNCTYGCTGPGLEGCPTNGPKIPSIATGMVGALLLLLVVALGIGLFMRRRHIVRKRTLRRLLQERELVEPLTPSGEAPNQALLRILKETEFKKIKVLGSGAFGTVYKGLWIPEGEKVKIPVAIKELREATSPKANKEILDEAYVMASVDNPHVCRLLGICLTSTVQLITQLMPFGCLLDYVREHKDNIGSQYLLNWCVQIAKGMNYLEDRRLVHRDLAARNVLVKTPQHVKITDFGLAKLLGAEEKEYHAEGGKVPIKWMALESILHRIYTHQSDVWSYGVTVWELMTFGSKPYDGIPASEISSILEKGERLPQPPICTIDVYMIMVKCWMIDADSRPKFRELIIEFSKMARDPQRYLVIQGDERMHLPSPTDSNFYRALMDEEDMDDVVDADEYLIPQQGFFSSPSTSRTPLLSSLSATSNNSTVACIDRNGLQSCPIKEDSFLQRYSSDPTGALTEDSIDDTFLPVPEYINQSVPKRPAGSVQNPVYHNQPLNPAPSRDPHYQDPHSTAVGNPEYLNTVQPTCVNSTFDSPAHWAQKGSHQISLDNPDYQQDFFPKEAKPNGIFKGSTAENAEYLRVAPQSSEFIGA
T1 sequence (P00533 with tags, fused parts or gaps DUP768-770): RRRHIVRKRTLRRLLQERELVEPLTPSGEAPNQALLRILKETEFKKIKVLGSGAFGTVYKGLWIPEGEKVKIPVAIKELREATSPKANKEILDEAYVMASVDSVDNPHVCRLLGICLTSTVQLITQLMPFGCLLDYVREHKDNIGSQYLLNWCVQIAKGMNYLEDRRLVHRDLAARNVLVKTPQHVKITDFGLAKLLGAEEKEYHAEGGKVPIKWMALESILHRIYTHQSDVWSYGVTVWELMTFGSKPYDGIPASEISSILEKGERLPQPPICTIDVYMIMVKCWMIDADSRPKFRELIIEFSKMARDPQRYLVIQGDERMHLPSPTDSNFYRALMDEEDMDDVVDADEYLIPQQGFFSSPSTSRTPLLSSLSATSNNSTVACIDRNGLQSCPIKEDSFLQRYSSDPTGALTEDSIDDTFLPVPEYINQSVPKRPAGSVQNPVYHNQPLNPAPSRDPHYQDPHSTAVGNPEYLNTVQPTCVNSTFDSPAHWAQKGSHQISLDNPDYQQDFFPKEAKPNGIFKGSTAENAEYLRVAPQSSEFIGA

On to `COc1c(F)cccc1Nc1c(-c2ccncc2OCC2COCCO2)[nH]c2c1C(=O)NCC2` (single isomer, unassigned) [Example 6, 2-{3-[(1,4-dioxan-2-yl)methoxy]pyridin-4-yl}-3-(3-fluoro-2-methoxyanilino)-1,5,6,7-tetrahydro-4H-pyrrolo[3,2-c]pyridin-4-one], for which the IC50 in test [1] was under 0.003 µM; with PC9 cells (EGFRex19del), 0.00194 µM; at Bub1, 6.31 µM. The “mutEGFR (D770_N771insSVD) kinase assay IC50” value in test [2] turned out to be 0.0001 µM. For the same molecule, the GI50 came out at 0.0503 µM on Ba/F3-EGFR-insSVD cells, 0.0318 µM in test [3] and 0.785 µM on Ba/F3-EGFR-WT cells.
